Source: US11053204B2, “Pyrimidinyloxy benzene derivatives as herbicides” (FMC Corporation, priority 2015, dated 2021)

Legend:
Format in all cases: in vivo
[1] = tested on: Italian ryegrass (Lolium multiflorum); assay: Test A preemergence, visual injury rating
Procedure, shortened: (§1)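 Visual 0–100 rating (100 = complete control) taken about 10 d post-treatment relative to untreated checks. Preemergence: directed soil spray on sown loam/sand pots. Postemergence: seedlings 2–10 cm, 1–2 leaf. Non-phytotoxic solvent formulation with surfactant.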

[2] = tested on: barnyardgrass (Echinochloa crus-galli); assay: Test A preemergence, visual injury rating; settings: for Plant response rating, Barnyardgrass: 31 g ai/ha, 0 to 100 scale, 0 no effect, 100 complete control; for Barnyardgrass plant response rating: 125 g ai/ha, 0 to 100 scale (0 no effect, 100 complete control)
Procedure, shortened: as §1

[3] = tested on: giant foxtail (Setaria faberii); assay: Test A preemergence, visual injury rating
Procedure, shortened: as §1

kochia (Kochia scoparia) [4] = assay: Test A preemergence, visual injury rating
Procedure, shortened: as §1

[5] = tested on: pigweed (Amaranthus retroflexus); assay: Test A preemergence, visual injury rating
Procedure, shortened: as §1

[6] = tested on: ragweed (common ragweed, Ambrosia elatior); assay: Test A preemergence, visual injury rating
Procedure, shortened: as §1

[7] = tested on: Italian ryegrass (Lolium multiflorum); assay: Test A postemergence, visual injury rating; settings: 0 is no effect, 100 is complete control; for Ryegrass, Italian plant response rating: 0 to 100 scale, approximately 10 days
Procedure, shortened: as §1

[8] = tested on: barnyardgrass (Echinochloa crus-galli); assay: Test A postemergence, visual injury rating; settings: 0 is no effect, 100 is complete control; for Barnyardgrass plant response rating: 0 to 100 scale, approximately 10 days
Procedure, shortened: as §1

[9] = tested on: blackgrass (Alopecurus myosuroides); assay: Test A postemergence, visual injury rating; settings: 0 is no effect, 100 is complete control; for Blackgrass plant response rating: 0 to 100 scale, approximately 10 days
Procedure, shortened: as §1

corn (Zea mays) = assay: Test A postemergence, visual injury rating; settings: 0 is no effect, 100 is complete control; for Corn plant response rating: 0 to 100 scale, approximately 10 days
Procedure, shortened: as §1

[10] = tested on: galium (catchweed bedstraw, Galium aparine); assay: Test A postemergence, visual injury rating; settings: 0 is no effect, 100 is complete control; for Galium plant response rating: 0 to 100 scale, approximately 10 days
Procedure, shortened: as §1

[11] = tested on: giant foxtail (Setaria faberii); assay: Test A postemergence, visual injury rating; settings: 0 is no effect, 100 is complete control; for Foxtail, Giant plant response rating: 0 to 100 scale, approximately 10 days
Procedure, shortened: as §1

kochia (Kochia scoparia) [12] = assay: Test A postemergence, visual injury rating; settings: 0 is no effect, 100 is complete control; for Kochia plant response rating: 0 to 100 scale, approximately 10 days
Procedure, shortened: as §1

[13] = tested on: pigweed (Amaranthus retroflexus); assay: Test A postemergence, visual injury rating; settings: 0 is no effect, 100 is complete control; for Pigweed plant response rating: 0 to 100 scale, approximately 10 days
Procedure, shortened: as §1

[14] = tested on: ragweed (common ragweed, Ambrosia elatior); assay: Test A postemergence, visual injury rating; settings: 0 is no effect, 100 is complete control; for Ragweed plant response rating: 0 to 100 scale, approximately 10 days
Procedure, shortened: as §1

[15] = tested on: wheat (Triticum aestivum); assay: Test A postemergence, visual injury rating; settings: 0 is no effect, 100 is complete control; for Wheat plant response rating: 0 to 100 scale, approximately 10 days
Procedure, shortened: as §1

[16] = tested on: barnyardgrass (Echinochloa crus-galli); assay: Test B flooded paddy test, plant response rating; settings: 250 g ai/ha; Flood; scale of 0 to 100 where 0 is no effect and 100 is complete control; 13 to 15 days
Procedure, shortened: (§2)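 Under a constant 3 cm flood, test compounds went directly into the paddy water. Following 13 to 15 days of greenhouse growth, treated species and controls were compared by eye.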

[17] = tested on: ducksalad (Heteranthera limosa); assay: Test B flooded paddy test, plant response rating; settings: 250 g ai/ha; Flood; scale of 0 to 100 where 0 is no effect and 100 is complete control; 13 to 15 days
Procedure, shortened: as §2

rice (Oryza sativa) = assay: Test B flooded paddy test, plant response rating; settings: 250 g ai/ha; Flood; scale of 0 to 100 where 0 is no effect and 100 is complete control; 13 to 15 days
Procedure, shortened: as §2

[18] = tested on: sedge, umbrella (small-flower umbrella sedge, Cyperus difformis); assay: Test B flooded paddy test, plant response rating; settings: 250 g ai/ha; Flood; scale of 0 to 100 where 0 is no effect and 100 is complete control; 13 to 15 days
Procedure, shortened: as §2

[19] = 31 g ai/ha, 0 to 100 scale, 0 no effect, 100 complete control
[20] = 125 g ai/ha, 0 to 100 scale (0 no effect, 100 complete control)

Compound	Plant response rating, Ryegrass, Italian [1, 19]	Plant response rating, Barnyardgrass [2]	Barnyardgrass plant response rating [2]	Plant response rating, Foxtail, Giant [3, 19]	Plant response rating, Kochia (kochia (Kochia scoparia) [4]; [19])	Plant response rating, Pigweed [5, 19]	Plant response rating, Ragweed [6, 19]	Ryegrass, Italian plant response rating ([7]; 31 g ai/ha)	Barnyardgrass plant response rating ([8]; 31 g ai/ha)	Blackgrass plant response rating ([9]; 31 g ai/ha)	Corn plant response rating (corn (Zea mays); 31 g ai/ha)	Galium plant response rating ([10]; 31 g ai/ha)	Foxtail, Giant plant response rating ([11]; 31 g ai/ha)	Kochia plant response rating (kochia (Kochia scoparia) [12]; 31 g ai/ha)	Pigweed plant response rating ([13]; 31 g ai/ha)	Ragweed plant response rating ([14]; 31 g ai/ha)	Wheat plant response rating ([15]; 31 g ai/ha)	Plant response rating, Barnyardgrass [16]	Plant response rating, Ducksalad [17]	Plant response rating, Rice (rice (Oryza sativa))	also measured
C#CCCOC(=O)c1c(Br)cccc1Oc1ncc(Cl)cn1 [Compound 38]	0	20	90	30	0	60	0	0	10	0	0	50	40	30	80	0	0	0	40	0	Ryegrass, Italian plant response rating [1, 20]: 0; Foxtail, Giant plant response rating [3, 20]: 100; Kochia plant response rating (kochia (Kochia scoparia) [4]; [20]): 40; Pigweed plant response rating [5, 20]: 100; Ragweed plant response rating [6, 20]: 0; Ryegrass, Italian plant response rating (0 to 100 scale) ([7]; 125 g ai/ha): 0; Barnyardgrass plant response rating (0 to 100 scale) ([8]; 125 g ai/ha): 60; Blackgrass plant response rating (0 to 100 scale) ([9]; 125 g ai/ha): 0; Corn plant response rating (0 to 100 scale) (corn (Zea mays); 125 g ai/ha): 10; Galium plant response rating (0 to 100 scale) ([10]; 125 g ai/ha): 80; Foxtail, Giant plant response rating (0 to 100 scale) ([11]; 125 g ai/ha): 90; Kochia plant response rating (0 to 100 scale) (kochia (Kochia scoparia) [12]; 125 g ai/ha): 60; Pigweed plant response rating (0 to 100 scale) ([13]; 125 g ai/ha): 100; Ragweed plant response rating (0 to 100 scale) ([14]; 125 g ai/ha): 10; Wheat plant response rating (0 to 100 scale) ([15]; 125 g ai/ha): 0; Plant response rating, Sedge, Umbrella [18]: 30
CC(=NOCCC(F)(F)F)c1c(Br)cccc1Oc1ncc(Cl)cn1 [Compound 98]	0	0	30	0	0	0	0	0	0	0	0	10	0	0	30	0	0	0	0	0	Plant response rating, Ryegrass, Italian [1, 20]: 0; Plant response rating, Foxtail, Giant [3, 20]: 40; Plant response rating, Kochia (kochia (Kochia scoparia) [4]; [20]): 0; Plant response rating, Pigweed [5, 20]: 0; Plant response rating, Ragweed [6, 20]: 0; Ryegrass, Italian plant response rating ([7]; 125 g ai/ha): 0; Barnyardgrass plant response rating ([8]; 125 g ai/ha): 10; Blackgrass plant response rating ([9]; 125 g ai/ha): 10; Corn plant response rating (corn (Zea mays); 125 g ai/ha): 10; Galium plant response rating ([10]; 125 g ai/ha): 50; Foxtail, Giant plant response rating ([11]; 125 g ai/ha): 20; Kochia plant response rating (kochia (Kochia scoparia) [12]; 125 g ai/ha): 0; Pigweed plant response rating ([13]; 125 g ai/ha): 90; Ragweed plant response rating ([14]; 125 g ai/ha): 10; Wheat plant response rating ([15]; 125 g ai/ha): 10; Plant response rating, Sedge, Umbrella [18]: 0
O=C(OCCC(F)(F)F)c1cc(Br)ccc1Oc1ncc(Cl)cn1 [Compound 94]	0	0	0	0	0	0	0	0	0	0	0	0	0	0	0	0	0	0	0	0	Ryegrass, Italian plant response rating [1, 20]: 0; Foxtail, Giant plant response rating [3, 20]: 0; Kochia plant response rating (kochia (Kochia scoparia) [4]; [20]): 0; Pigweed plant response rating [5, 20]: 0; Ragweed plant response rating [6, 20]: 0; Ryegrass, Italian plant response rating ([7]; 125 g ai/ha): 0; Barnyardgrass plant response rating ([8]; 125 g ai/ha): 0; Blackgrass plant response rating ([9]; 125 g ai/ha): 0; Corn plant response rating (corn (Zea mays); 125 g ai/ha): 0; Galium plant response rating ([10]; 125 g ai/ha): 0; Foxtail, Giant plant response rating ([11]; 125 g ai/ha): 0; Kochia plant response rating (kochia (Kochia scoparia) [12]; 125 g ai/ha): 0; Pigweed plant response rating ([13]; 125 g ai/ha): 0; Ragweed plant response rating ([14]; 125 g ai/ha): 0; Wheat plant response rating ([15]; 125 g ai/ha): 0; Plant response rating, Sedge, Umbrella [18]: 0
